The test system of experiment [1] is SEC subunits AFF1, AFF4, ELL2, CCNT1 and CDK9 mRNA. The experiment can be described thus: RNA-seq of SEC subunit mRNA expression in HEK293T cells. In kind it is cell-based, human. To be noted: 20 μM, 12 hr. From the text:
FIG. 8, related to FIG. 1. Peptidomimetic identification of disruptors of the AFF4-CCNT1 interaction within the Super Elongation Complex. (A) Schematic of AlphaLISA assay of the AFF4-CCNT1 interaction. Anti-GST AlphaLISA acceptor beads and AlphaScreen streptavidin donor beads (Perkin Elmer) were used to detect the interaction of GST-CCNT1 (AA1-300) and biotin-AFF4 (AA32-67). (B-C) Optimization of the AlphaLISA assay with various biotin-AFF4 peptide and GST-CCNT1 concentrations. No CCNT1 (B) and mutant AFF4 (C) were used as negative controls. Data are represented as Mean+/−SD. (D) Scheme for chemical synthesis of SEC inhibitors KL-1 and KL-2. Reagents and conditions: a. LDA, THF, −78° C., 15 min., then diethyl oxalate, −78° C. to room temperature. b. […] 293T cells were treated with 20 μM of KL-1 or KL-2 for 6 hr, and the protein levels of BRD2, BRD4, Pol II (RPB1), SPT5, MED26, MYC, HSP90 (load control) and Tubulin (load control) were measured by western blotting. […] HCT-116 cells were treated with 20 μM of KL-1 or KL-2 for 6 hr, and the protein levels of AFF1, AFF4, CCNT1, CDK9 and Tubulin (load control) were determined by western blotting. […] The log2CPM (counts per million) of the SEC subunits were calculated with HTseq. […]
RNA-seq Analysis. […] Exonic reads were assigned to specific genes from Ensembl release 75 using Bioconductor package GenomicRanges countOverlaps. […]

For the next experiment, the system named is Pol II. The experiment can be described thus: Pol II ChIP-seq, promoter-proximal pausing in HEK293T cells. In kind it is cell-based, human. As for the experimental part: FIG. 2. Small molecule disruption of SEC increases promoter-proximal pausing. (A) SEC inhibitors increase Pol II occupancy near the transcription start sites (TSS) of the HSPA8 and SRSF4 genes. Pol II ChIP-seq was performed in HEK293T cells with 20 μM SEC inhibitors KL-1 and KL-2 for 6 hr. […] (B) Heatmap analysis of Pol II occupancy at SEC-occupied genes in cells treated with KL-1 and KL-2. SEC inhibition results in increased Pol II occupancy at promoter-proximal regions of genes occupied by SEC. Rows are sorted by Pol II occupancy in the DMSO condition and metaplots of Pol II occupancy are shown at the bottom. Corresponding AFF1 and AFF4 occupancy (rpm) in the vehicle-treated condition is shown. […] The pausing index is calculated based on the ratio of Pol II occupancy around the TSS to Pol II occupancy in the gene body. […]
Chromatin Immunoprecipitation Sequencing. […] ChIP-seq reads were aligned to the Drosophila genome (UCSC dm3) or human genome (UCSC hgl9). Alignments were processed with Bowtie version 1.1.2, allowing only uniquely mapping reads with up to two mismatches within the 50 bp read. The resulting reads were extended to 150 bp toward the interior of the sequenced fragment and normalized to total reads aligned (reads per million, r.p.m.). […] P-values were calculated with a two-sided Kolmogorov-Smirnov test. […]

Molecules are shown by their SMILES.

As for `COc1cccc(C(=O)CC(=O)C(=O)Nc2cc(Cl)ccc2C)c1` [KL-1, N-(5-chloro-2-methylphenyl)-4-oxo-4-(3-methoxyphenyl)-2-oxobutanamide], the “mRNA levels of SEC components” value in experiment [1] is recorded as “do not result in decreased mRNA levels of SEC components”. Besides, in the experiment on Pol II, the “promoter-proximal pausing (pausing index, ECDF)” value is listed as “could increase promoter-proximal pausing”. Moreover, the “Pol II occupancy at promoter-proximal regions” value with Pol II (20 μM, 6 hr, HSPA8 and SRSF4 loci) was “increased Pol II occupancy at the promoter-proximal regions”.

Source of the values: patent US11453640B2, “Small molecules for disrupting the super elongation complex and inhibiting transcription elongation for cancer therapy” (NORTHWESTERN UNIVERSITY, priority 2018, dated 2022).
